Results from ChEMBL document CHEMBL1152667, “Synthesis and radiopharmacological investigation of 3-[4'-[(18)F]fluorobenzylidene]indolin-2-one as possible tyrosine kinase inhibitor” (Bioorg Med Chem, 2009).

Key:
[1] = tested on: Spleen; assay: Biodistribution in Wistar rat spleen assessed as standard uptake value at 1.7 MBq, iv administered as single dose measured after 1 min post-injection by gamma counting; format: ADME, organism-based; details: in vivo
[2] = tested on: Liver; assay: Biodistribution in Wistar rat liver assessed as standard uptake value at 1.7 MBq, iv administered as single dose measured after 30 mins post-injection by gamma counting; format: ADME, organism-based; details: in vivo, 0.5 h
[3] = tested on: Blood; assay: Biodistribution in Wistar rat blood assessed as standard uptake value at 1.7 MBq, iv administered as single dose measured after 60 mins post-injection by gamma counting; format: ADME, organism-based; details: in vivo, 1 h
[4] = Biodistribution in Wistar rat brown adipose tissue assessed as standard uptake value at 1.7 MBq, iv administered as single dose measured after 1 min post-injection by gamma counting; format: ADME, organism-based; details: in vivo
[5] = tested on: Brain; assay: Biodistribution in Wistar rat brain at 1.7 MBq, iv administered as single dose measured after 60 mins post-injection by gamma counting; format: ADME, organism-based; details: in vivo, 1 h
[6] = tested on: Lung; assay: Biodistribution in Wistar rat lung at 1.7 MBq, iv administered as single dose measured after 60 mins post-injection by gamma counting; format: ADME, organism-based; details: in vivo, 1 h
[7] = tested on: Harderian gland; assay: Biodistribution in Wistar rat harderian gland assessed as standard uptake value at 1.7 MBq, iv administered as single dose measured after 10 mins post-injection by gamma counting; format: ADME, organism-based; details: in vivo
[8] = tested on: Brain; assay: Biodistribution in Wistar rat brain assessed as standard uptake value at 1.7 MBq, iv administered as single dose measured after 1 min post-injection by gamma counting; format: ADME, organism-based; details: in vivo
[9] = tested on: Femur; assay: Biodistribution in Wistar rat femur at 1.7 MBq, iv administered as single dose measured after 10 mins post-injection by gamma counting; format: ADME, organism-based; details: in vivo
[10] = Ratio of drug level in adrenal gland to blood in Wistar rat at 1.7 MBq, iv administered as single dose measured after 5 mins post-injection; format: ADME, organism-based
[11] = tested on: Harderian gland; assay: Biodistribution in Wistar rat harderian gland at 1.7 MBq, iv administered as single dose measured after 30 mins post-injection by gamma counting; format: ADME, organism-based; details: in vivo, 0.5 h
[12] = tested on: Adrenal gland; assay: Biodistribution in Wistar rat adrenal gland at 1.7 MBq, iv administered as single dose measured after 5 mins post-injection by gamma counting; format: ADME, organism-based; details: in vivo
[13] = tested on: Thymus; assay: Biodistribution in Wistar rat thymus at 1.7 MBq, iv administered as single dose measured after 30 mins post-injection by gamma counting; format: ADME, organism-based; details: in vivo, 0.5 h
[14] = Ratio of drug level in kidney to blood in Wistar rat at 1.7 MBq, iv administered as single dose measured after 5 mins post-injection; format: ADME, organism-based
[15] = Biodistribution in Wistar rat brown adipose tissue assessed as standard uptake value at 1.7 MBq, iv administered as single dose measured after 10 mins post-injection by gamma counting; format: ADME, organism-based; details: in vivo
[16] = Biodistribution in Wistar rat thyroid gland at 1.7 MBq, iv administered as single dose measured after 10 mins post-injection by gamma counting; format: ADME, organism-based; details: in vivo
[17] = tested on: Femur; assay: Biodistribution in Wistar rat femur at 1.7 MBq, iv administered as single dose measured after 1 min post-injection by gamma counting; format: ADME, organism-based; details: in vivo
[18] = tested on: Liver; assay: Biodistribution in Wistar rat liver assessed as standard uptake value at 1.7 MBq, iv administered as single dose measured after 1 min post-injection by gamma counting; format: ADME, organism-based; details: in vivo
[19] = tested on: Kidney; assay: Biodistribution in Wistar rat kidney at 1.7 MBq, iv administered as single dose measured after 5 mins post-injection by gamma counting; format: ADME, organism-based; details: in vivo
[20] = Biodistribution in Wistar rat thyroid gland assessed as standard uptake value at 1.7 MBq, iv administered as single dose measured after 1 min post-injection by gamma counting; format: ADME, organism-based; details: in vivo
[21] = Ratio of drug level in harderian gland to blood in Wistar rat at 1.7 MBq, iv administered as single dose measured after 60 mins post-injection; format: ADME, organism-based
[22] = tested on: Adrenal gland; assay: Biodistribution in Wistar rat adrenal gland at 1.7 MBq, iv administered as single dose measured after 60 mins post-injection by gamma counting; format: ADME, organism-based; details: in vivo, 1 h
[23] = Metabolic stability in Wistar rat blood assessed as compound remaining at 30 MBq, iv after 1 min by radio-HPLC analysis; format: ADME, organism-based; details: read-out: Stability
[24] = tested on: Liver; assay: Biodistribution in Wistar rat liver assessed as standard uptake value at 1.7 MBq, iv administered as single dose measured after 10 mins post-injection by gamma counting; format: ADME, organism-based; details: in vivo
[25] = Biodistribution in Wistar rat thyroid gland at 1.7 MBq, iv administered as single dose measured after 5 mins post-injection by gamma counting; format: ADME, organism-based; details: in vivo
[26] = Ratio of drug level in brain to blood in Wistar rat at 1.7 MBq, iv administered as single dose measured after 60 mins post-injection; format: ADME, organism-based
[27] = tested on: Brain; assay: Biodistribution in Wistar rat brain assessed as standard uptake value at 1.7 MBq, iv administered as single dose measured after 10 mins post-injection by gamma counting; format: ADME, organism-based; details: in vivo
[28] = tested on: Blood; assay: Biodistribution in Wistar rat blood assessed as standard uptake value at 1.7 MBq, iv administered as single dose measured after 10 mins post-injection by gamma counting; format: ADME, organism-based; details: in vivo
[29] = Biodistribution in Wistar rat thyroid gland at 1.7 MBq, iv administered as single dose measured after 30 mins post-injection by gamma counting; format: ADME, organism-based; details: in vivo, 0.5 h
[30] = tested on: Harderian gland; assay: Biodistribution in Wistar rat harderian gland at 1.7 MBq, iv administered as single dose measured after 10 mins post-injection by gamma counting; format: ADME, organism-based; details: in vivo
[31] = tested on: Muscle tissue; assay: Biodistribution in Wistar rat muscle assessed as standard uptake value at 1.7 MBq, iv administered as single dose measured after 30 mins post-injection by gamma counting; format: ADME, organism-based; details: in vivo, 0.5 h
[32] = tested on: Lung; assay: Biodistribution in Wistar rat lung assessed as standard uptake value at 1.7 MBq, iv administered as single dose measured after 5 mins post-injection by gamma counting; format: ADME, organism-based; details: in vivo
[33] = tested on: Kidney; assay: Biodistribution in Wistar rat kidney assessed as standard uptake value at 1.7 MBq, iv administered as single dose measured after 5 mins post-injection by gamma counting; format: ADME, organism-based; details: in vivo
[34] = tested on: Harderian gland; assay: Biodistribution in Wistar rat harderian gland at 1.7 MBq, iv administered as single dose measured after 1 min post-injection by gamma counting; format: ADME, organism-based; details: in vivo
[35] = Biodistribution in Wistar rat hair/skin assessed as standard uptake value at 1.7 MBq, iv administered as single dose measured after 60 mins post-injection by gamma counting; format: ADME, organism-based; details: in vivo, 1 h
[36] = tested on: Kidney; assay: Biodistribution in Wistar rat kidney assessed as standard uptake value at 1.7 MBq, iv administered as single dose measured after 30 mins post-injection by gamma counting; format: ADME, organism-based; details: in vivo, 0.5 h
[37] = tested on: Femur; assay: Biodistribution in Wistar rat femur assessed as standard uptake value at 1.7 MBq, iv administered as single dose measured after 1 min post-injection by gamma counting; format: ADME, organism-based; details: in vivo
[38] = tested on: Blood; assay: Biodistribution in Wistar rat blood assessed as standard uptake value at 1.7 MBq, iv administered as single dose measured after 30 mins post-injection by gamma counting; format: ADME, organism-based; details: in vivo, 0.5 h
[39] = tested on: Testes; assay: Biodistribution in Wistar rat testes at 1.7 MBq, iv administered as single dose measured after 1 min post-injection by gamma counting; format: ADME, organism-based, Testis; details: in vivo
[40] = tested on: Liver; assay: Biodistribution in Wistar rat liver at 1.7 MBq, iv administered as single dose measured after 30 mins post-injection by gamma counting; format: ADME, organism-based; details: in vivo, 0.5 h
[41] = Ratio of drug level in adrenal gland to blood in Wistar rat at 1.7 MBq, iv administered as single dose measured after 60 mins post-injection; format: ADME, organism-based
[42] = Biodistribution in Wistar rat hair/skin assessed as standard uptake value at 1.7 MBq, iv administered as single dose measured after 5 mins post-injection by gamma counting; format: ADME, organism-based; details: in vivo

SUV [1]: 0.98%
SUV [2]: 1.68%
SUV [3]: 0.15%
SUV [4]: 1.42%
Drug uptake [5]: 0.2 %ID
Drug uptake [6]: 0.19 %ID
SUV [7]: 1.91%
SUV [8]: 2.84%
Drug uptake [9]: 0.32 %ID
Kp at 5 min [10]: 10.2
Drug uptake [11]: 0.14 %ID
Drug uptake [12]: 0.17 %ID
Drug uptake [13]: 0.08 %ID
Kp at 5 min [14]: 4.7
SUV [15]: 1.83%
Drug uptake [16]: 0.05 %ID
Drug uptake [17]: 0.44 %ID
SUV [18]: 2.98%
Drug uptake [19]: 2.51 %ID
SUV [20]: 1.55%
Kp at 1 h [21]: 6.8
Drug uptake [22]: 0.04 %ID
remaining at 1 min [23]: 70%
SUV [24]: 3.03%
Drug uptake [25]: 0.08 %ID
Kp at 1 h [26]: 3.2
SUV [27]: 0.97%
SUV [28]: 0.47%
Drug uptake [29]: 0.03 %ID
Drug uptake [30]: 0.25 %ID
SUV [31]: 0.45%
SUV [32]: 1.3%
SUV [33]: 2.64%
Drug uptake [34]: 0.29 %ID
SUV [35]: 0.19%
SUV [36]: 1.69%
SUV [37]: 0.89%
SUV [38]: 0.27%
Drug uptake [39]: 0 %ID
Drug uptake [40]: 8.95 %ID
Kp at 1 h [41]: 8.9
SUV [42]: 0.92%
SMILES: O=C1Nc2ccccc2/C1=C/c1ccc([18F])cc1
